Consider 21 compounds from ChEMBL document CHEMBL1201862, “PubChem BioAssay data set” (2004).

Each structure is given as a SMILES string. Calls of active or inactive are those of the source. Where only a bound is given, the exact number is not on record here.

In test [1] the target is Cytochrome P450 3A4 (Homo sapiens, UniProt P08684). Particulars: Potency.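 Further: confirmatory qHTS run detecting inhibitors and substrates of CYP3A4.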
Test [2] addresses T1, Leucine aminopeptidase (Plasmodium falciparum 3D7, UniProt Q8IL11).
T1 sequence (Q8IL11 whole entry): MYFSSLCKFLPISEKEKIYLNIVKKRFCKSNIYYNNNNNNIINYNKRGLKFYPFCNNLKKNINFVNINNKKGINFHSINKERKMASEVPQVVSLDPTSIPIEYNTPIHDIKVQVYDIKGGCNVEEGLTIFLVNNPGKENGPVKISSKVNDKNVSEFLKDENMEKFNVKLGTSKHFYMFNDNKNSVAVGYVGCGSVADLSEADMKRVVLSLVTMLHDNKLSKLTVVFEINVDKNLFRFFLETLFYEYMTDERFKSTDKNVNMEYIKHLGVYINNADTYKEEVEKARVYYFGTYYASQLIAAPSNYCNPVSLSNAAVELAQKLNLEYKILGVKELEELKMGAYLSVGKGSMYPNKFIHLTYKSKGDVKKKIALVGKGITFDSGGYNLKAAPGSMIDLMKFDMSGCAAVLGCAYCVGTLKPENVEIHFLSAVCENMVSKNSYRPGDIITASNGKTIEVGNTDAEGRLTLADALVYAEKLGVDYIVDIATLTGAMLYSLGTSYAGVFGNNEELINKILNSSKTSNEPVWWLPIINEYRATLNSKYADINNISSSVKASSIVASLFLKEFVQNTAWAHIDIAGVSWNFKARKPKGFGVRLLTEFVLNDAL
Description: P. falciparum M17LAP inhibitors, primary screen, biochemical, fluorogenic H-Leu-NHMec substrate, 1536-well (AID 1619). The class given is functional.

The target of test [3] is Procathepsin L (Homo sapiens, UniProt P07711). Description: cathepsin L inhibitors, dose response, counter-screen for M1/M17 aminopeptidase inhibitor project, biochemical, QFRET, 1536-well (AID 2214).
Chain of Procathepsin L (P07711 whole entry): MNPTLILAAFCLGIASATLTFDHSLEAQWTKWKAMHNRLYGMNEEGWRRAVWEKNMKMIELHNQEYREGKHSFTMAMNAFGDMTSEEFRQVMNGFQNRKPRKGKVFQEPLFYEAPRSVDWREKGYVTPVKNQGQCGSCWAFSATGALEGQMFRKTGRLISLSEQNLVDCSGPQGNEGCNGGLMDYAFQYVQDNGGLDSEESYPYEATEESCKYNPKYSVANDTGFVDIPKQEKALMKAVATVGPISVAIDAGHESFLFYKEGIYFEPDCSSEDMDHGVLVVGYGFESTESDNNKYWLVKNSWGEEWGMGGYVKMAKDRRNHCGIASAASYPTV
Test [4] addresses T2, Aspartyl aminopeptidase (Plasmodium falciparum 3D7, UniProt Q8I2J3).
T2 sequence (Q8I2J3 whole entry): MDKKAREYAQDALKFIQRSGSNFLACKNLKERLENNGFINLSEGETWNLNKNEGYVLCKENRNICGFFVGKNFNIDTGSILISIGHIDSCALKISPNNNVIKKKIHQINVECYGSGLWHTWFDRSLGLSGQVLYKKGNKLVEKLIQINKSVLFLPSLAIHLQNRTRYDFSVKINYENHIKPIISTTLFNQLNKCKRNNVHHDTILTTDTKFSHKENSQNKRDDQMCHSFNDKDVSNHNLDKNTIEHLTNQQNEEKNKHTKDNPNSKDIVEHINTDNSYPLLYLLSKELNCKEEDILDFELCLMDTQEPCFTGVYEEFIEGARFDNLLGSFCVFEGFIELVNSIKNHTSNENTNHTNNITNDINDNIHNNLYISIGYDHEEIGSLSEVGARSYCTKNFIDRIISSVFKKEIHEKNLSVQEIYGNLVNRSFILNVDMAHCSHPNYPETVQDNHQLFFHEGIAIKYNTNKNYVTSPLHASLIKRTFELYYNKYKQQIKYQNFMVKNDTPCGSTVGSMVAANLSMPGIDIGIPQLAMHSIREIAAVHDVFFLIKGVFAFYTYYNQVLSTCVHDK
Description: Counterscreen for inhibitors of M1 and M17 aminopeptidases: QFRET-based biochemical high throughput dose response assay for inhibitors of the Plasmodium falciparum M18 Aspartyl Aminopeptidase (PFM18AAP). [Related PubChem assays: 1619 (Screening assay (M17LAP inhibitors).), 1445 (Screening assay (M1AAP inhibitors).)]. A general note: A counterscreen serves to expose hits that act by an unwanted route or on another target.

Test [5] concerns the target Voltage-dependent T-type calcium channel subunit alpha-1H (Homo sapiens, UniProt O95180). Format: functional.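 Further: channel activity triggered by adding a high calcium stimulation buffer.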
The target in test [6] is Glyceraldehyde-3-phosphate dehydrogenase (Homo sapiens, UniProt P04406).
Chain of Glyceraldehyde-3-phosphate dehydrogenase (P04406 whole entry): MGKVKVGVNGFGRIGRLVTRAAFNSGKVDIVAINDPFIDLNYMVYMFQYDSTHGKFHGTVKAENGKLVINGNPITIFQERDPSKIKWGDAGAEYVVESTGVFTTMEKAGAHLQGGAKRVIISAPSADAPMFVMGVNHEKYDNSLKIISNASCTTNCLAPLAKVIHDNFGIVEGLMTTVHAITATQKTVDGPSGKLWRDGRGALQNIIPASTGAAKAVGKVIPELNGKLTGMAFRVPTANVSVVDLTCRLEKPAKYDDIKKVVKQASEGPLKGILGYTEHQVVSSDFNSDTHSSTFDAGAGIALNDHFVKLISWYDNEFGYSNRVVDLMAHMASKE
Test [7] has as its target T3, Alkaline phosphatase, tissue-nonspecific isozyme (Homo sapiens, UniProt P05186).
T3 sequence (P05186 whole entry): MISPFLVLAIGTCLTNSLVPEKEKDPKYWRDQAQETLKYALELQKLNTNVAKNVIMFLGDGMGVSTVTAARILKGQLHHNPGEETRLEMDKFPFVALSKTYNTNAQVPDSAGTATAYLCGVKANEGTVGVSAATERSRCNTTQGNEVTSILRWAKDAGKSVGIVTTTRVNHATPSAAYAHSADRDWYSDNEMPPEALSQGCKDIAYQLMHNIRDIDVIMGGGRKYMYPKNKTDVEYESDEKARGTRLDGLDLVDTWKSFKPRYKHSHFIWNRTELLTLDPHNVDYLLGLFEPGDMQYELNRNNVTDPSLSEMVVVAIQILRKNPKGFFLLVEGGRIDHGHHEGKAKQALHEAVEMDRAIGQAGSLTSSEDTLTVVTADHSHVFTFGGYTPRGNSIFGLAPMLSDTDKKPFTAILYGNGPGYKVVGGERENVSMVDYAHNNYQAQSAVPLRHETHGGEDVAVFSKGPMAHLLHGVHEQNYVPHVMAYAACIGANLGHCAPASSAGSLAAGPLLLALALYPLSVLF
Description: human TNAP enzyme inhibitors, SAR follow-up, biochemical, luminescent, dose response (AID 1056).

In test [8] the target is DNA dC->dU-editing enzyme APOBEC-3A (Homo sapiens, UniProt P31941). As to the kind of experiment: Dose Response confirmation of small molecule APOBEC3A DNA Deaminase Inhibitors via a fluorescence-based single-stranded DNA deaminase assay. [Related pubchem assays (depositor defined):AID493011, AID493024]. The class given is functional.
Chain of DNA dC->dU-editing enzyme APOBEC-3A (P31941 whole entry): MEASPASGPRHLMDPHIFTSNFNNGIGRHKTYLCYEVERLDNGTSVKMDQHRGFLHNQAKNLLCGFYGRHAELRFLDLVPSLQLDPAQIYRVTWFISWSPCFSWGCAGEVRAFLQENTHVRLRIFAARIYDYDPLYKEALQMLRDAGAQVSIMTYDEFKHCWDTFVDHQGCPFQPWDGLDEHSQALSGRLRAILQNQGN
In test [9] the target is Eukaryotic translation initiation factor 4H (Homo sapiens, UniProt Q15056). Description: human eIF4H binding inhibitors, primary screen, translation initiation inhibitor project, biochemical, uHTS, fluorescence polarization (AID 2012). For orientation: Polarisation of emitted light reports the rotation of a fluorescent probe.
Test [10] has as its target Polyadenylate-binding protein 1 (Homo sapiens, UniProt P11940). Description: PABP poly(A) RNA binding inhibitors, primary screen, biochemical, fluorescence polarization, uHTS (AID 2014).
Test [11] addresses DNA dC->dU-editing enzyme APOBEC-3G (Homo sapiens, UniProt Q9HC16). The class given is functional.
A short description of test [12]: cells. The class given is functional.
The nature of test [13]: C. albicans growth with fluconazole, confirmation, fluorescence, retest (AID 2467). The class given is functional, cell-based.
The nature of test [14]: A cytotoxicity screen of small molecule inhibitors of the PhoP region in Salmonella typhi identified in the primary screen. [Related pubchem assays: 1850, 1864, 1985 ]. The class given is functional.
A short description of test [15]: NIH-3T3 fibroblast cytotoxicity, dose response, cytotoxicity control, cell-based, fluorescence, Alamar Blue, secondary assay (AID 2327).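 Further: NIH-3T3 mouse fibroblasts cultured with fluconazole at 8 µg/mL.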 Format: functional.
For test [16], the target named is Alkaline phosphatase, placental type (Homo sapiens, UniProt P05187). As to the kind of experiment: PLAP enzyme inhibitors, confirmation, biochemical, luminescence (AID 1512). The class given is functional.
Test [17] can be described thus: Luminescence Cell-Based Dose Retest to Confirm Inhibitors of Cancer Stem Cells. [Related pubchem assays (depositor defined):AID2717, AID2721]. The class given is functional. The settings on record: Homo sapiens.
Test [18] in a line: cytotoxicity in HPDE-C7 cells, cell-based, fluorescence, HTS (AID 430). The class given is functional. Particulars: Homo sapiens.
Test [19] can be described thus: cytotoxicity in KRAS-transformed pancreatic duct cells, primary screen, cell-based, fluorescence, HTS (AID 431). Format: functional. Particulars: Homo sapiens.
Test [20] deals with Streptococcus sp. 'group A'. As to the kind of experiment: growth inhibition of control SK(-) GAS strain, dose response, counter-screen for streptokinase expression inhibitor project, luminescence, kanamycin, BacTiterGlo, confirmation (AID 1900). The class given is functional, organism-based.
The test system of test [21] is Streptococcus. Description: Group A Streptococcus viability loss, dose response, counter-screen for streptokinase expression inhibitor project, luminescence, BacTiterGlo (AID 1915).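 Further: potency for reduction of bacterial viability or growth.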 Format: functional, organism-based.
The target of test [22] is Cytochrome P450 2D6 (Homo sapiens, UniProt P10635).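 Further: CYP2D6 member of a cytochrome P450 panel assay.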
The target in test [23] is Cytochrome P450 2C9 (Homo sapiens, UniProt P11712).
Test [24] concerns the target Cytochrome P450 2C19 (Homo sapiens, UniProt P33261). As to the kind of experiment: Cytochrome panel assay with activity outcomes. Panel member name: p450-cyp2c19 Compounds with AC50 equal or less than 10 uM are considered active. Particulars: read-out: AC50. Format: functional.

In general, AC50 refers to the concentration giving half of the maximal activity seen. As a reminder, the IC50 is the midpoint of a concentration-inhibition curve. As usually defined, the EC50 is the concentration that produces a half-maximal response.

Chain of Cytochrome P450 3A4 (P08684 whole entry): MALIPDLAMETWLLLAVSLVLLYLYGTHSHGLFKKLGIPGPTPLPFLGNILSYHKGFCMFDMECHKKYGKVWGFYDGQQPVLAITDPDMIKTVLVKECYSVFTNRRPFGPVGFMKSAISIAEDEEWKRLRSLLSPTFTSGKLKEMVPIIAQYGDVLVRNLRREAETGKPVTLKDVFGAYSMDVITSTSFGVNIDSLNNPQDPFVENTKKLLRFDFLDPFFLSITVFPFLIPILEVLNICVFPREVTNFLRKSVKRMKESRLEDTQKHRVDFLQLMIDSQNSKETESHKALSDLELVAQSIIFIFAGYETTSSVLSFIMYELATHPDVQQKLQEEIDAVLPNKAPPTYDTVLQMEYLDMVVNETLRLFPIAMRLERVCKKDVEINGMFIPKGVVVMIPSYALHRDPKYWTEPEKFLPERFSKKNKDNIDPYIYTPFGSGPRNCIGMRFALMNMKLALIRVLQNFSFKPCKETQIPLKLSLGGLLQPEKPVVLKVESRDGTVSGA
Chain of Polyadenylate-binding protein 1 (P11940 whole entry): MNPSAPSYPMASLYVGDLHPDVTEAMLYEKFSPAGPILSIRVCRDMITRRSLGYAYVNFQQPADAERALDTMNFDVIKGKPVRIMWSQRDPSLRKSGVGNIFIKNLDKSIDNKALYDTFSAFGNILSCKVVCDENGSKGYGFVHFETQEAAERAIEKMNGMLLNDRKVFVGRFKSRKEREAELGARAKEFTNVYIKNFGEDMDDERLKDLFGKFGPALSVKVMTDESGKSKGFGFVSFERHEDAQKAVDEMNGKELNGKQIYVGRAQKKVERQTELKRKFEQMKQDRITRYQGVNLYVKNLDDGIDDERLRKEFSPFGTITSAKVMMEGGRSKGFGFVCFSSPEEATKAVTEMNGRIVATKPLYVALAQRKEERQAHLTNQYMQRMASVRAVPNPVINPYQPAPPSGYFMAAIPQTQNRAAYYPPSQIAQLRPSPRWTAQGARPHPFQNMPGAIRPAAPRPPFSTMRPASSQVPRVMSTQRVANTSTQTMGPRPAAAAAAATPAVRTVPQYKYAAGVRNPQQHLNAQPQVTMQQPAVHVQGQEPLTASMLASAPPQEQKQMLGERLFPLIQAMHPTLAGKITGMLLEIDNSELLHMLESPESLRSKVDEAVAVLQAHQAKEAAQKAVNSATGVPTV
Chain of DNA dC->dU-editing enzyme APOBEC-3G (Q9HC16 whole entry): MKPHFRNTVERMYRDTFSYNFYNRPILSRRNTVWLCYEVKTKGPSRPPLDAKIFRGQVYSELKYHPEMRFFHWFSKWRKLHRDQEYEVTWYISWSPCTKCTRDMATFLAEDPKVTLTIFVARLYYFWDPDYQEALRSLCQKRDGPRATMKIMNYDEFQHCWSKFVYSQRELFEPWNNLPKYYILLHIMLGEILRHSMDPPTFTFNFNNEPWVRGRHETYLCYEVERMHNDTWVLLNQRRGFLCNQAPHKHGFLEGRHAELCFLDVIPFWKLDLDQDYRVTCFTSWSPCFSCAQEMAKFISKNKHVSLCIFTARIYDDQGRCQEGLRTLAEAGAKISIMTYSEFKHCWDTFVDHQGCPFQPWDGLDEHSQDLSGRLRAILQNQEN
Chain of Voltage-dependent T-type calcium channel subunit alpha-1H (O95180 whole entry): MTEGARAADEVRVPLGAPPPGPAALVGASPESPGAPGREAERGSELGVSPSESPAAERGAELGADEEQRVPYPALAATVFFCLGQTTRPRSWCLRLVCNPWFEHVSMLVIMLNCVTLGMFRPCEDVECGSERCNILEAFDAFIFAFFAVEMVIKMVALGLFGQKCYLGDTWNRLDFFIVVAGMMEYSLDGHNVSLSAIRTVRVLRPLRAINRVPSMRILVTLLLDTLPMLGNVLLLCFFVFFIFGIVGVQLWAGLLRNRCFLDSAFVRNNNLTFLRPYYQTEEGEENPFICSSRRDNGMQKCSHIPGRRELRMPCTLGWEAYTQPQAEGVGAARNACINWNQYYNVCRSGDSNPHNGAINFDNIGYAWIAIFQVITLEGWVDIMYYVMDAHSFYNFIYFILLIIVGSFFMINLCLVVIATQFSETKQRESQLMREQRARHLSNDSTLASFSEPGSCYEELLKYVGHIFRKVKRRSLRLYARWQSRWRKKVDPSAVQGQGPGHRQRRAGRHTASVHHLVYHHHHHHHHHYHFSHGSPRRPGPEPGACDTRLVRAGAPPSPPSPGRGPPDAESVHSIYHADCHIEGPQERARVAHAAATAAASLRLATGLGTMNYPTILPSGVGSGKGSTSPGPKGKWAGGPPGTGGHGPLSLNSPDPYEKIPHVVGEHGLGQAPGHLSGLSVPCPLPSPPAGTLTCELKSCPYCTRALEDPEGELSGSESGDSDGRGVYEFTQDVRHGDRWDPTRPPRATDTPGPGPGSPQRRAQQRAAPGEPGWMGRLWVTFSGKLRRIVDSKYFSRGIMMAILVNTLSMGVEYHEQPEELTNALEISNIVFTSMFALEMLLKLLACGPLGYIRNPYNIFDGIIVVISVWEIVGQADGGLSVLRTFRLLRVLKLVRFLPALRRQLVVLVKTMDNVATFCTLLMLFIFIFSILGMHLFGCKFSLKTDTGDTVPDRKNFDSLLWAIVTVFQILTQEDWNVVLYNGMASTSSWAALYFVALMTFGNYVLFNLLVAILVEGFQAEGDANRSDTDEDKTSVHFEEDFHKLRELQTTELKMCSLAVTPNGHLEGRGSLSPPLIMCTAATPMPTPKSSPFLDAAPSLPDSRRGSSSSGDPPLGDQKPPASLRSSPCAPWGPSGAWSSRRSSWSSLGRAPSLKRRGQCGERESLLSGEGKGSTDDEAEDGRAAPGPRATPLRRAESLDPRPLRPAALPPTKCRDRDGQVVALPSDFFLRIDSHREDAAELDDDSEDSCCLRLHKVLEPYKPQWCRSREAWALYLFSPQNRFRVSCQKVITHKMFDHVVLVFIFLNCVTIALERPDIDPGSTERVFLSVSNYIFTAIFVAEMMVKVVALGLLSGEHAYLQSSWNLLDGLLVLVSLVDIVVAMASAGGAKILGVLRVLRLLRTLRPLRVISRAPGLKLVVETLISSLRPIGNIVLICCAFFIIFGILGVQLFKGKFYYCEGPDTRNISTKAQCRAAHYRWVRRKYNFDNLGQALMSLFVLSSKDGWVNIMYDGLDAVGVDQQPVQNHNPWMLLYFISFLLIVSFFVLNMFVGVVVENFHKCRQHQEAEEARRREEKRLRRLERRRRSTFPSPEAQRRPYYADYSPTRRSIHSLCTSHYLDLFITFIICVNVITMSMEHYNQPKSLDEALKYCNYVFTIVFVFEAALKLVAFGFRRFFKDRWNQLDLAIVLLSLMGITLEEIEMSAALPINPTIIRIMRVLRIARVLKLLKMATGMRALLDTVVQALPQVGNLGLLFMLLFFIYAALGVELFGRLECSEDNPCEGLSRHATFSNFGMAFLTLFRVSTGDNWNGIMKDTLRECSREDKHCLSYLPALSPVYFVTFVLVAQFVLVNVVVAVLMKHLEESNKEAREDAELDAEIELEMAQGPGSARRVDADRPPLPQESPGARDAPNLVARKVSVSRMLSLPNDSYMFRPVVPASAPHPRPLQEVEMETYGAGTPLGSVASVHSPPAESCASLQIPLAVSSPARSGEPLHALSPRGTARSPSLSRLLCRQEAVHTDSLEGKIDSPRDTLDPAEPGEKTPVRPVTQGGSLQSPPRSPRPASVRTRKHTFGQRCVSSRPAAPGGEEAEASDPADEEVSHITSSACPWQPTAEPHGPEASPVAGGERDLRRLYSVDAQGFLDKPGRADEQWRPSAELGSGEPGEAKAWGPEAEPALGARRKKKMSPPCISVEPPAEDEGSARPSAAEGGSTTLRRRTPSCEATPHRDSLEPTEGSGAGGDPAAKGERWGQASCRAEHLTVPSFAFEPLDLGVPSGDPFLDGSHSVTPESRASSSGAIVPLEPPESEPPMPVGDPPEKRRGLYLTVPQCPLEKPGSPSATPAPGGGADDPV

In the case of `O=c1c(-c2cc(O)c(O)c(O)c2)coc2cc(O)c(O)c(O)c12` [IRIGENOL], the AC50 in test [1] is 25.1 µM (inconclusive).
Turning to `O=C(O)CCCCCNC(=O)Nc1ccc2c(c1)OCCO2`, the half-inhibitory concentration (IC50) was 5.51 µM (active) in [2], > 59.6 µM (not active) in test [3] and > 73.5 µM (not active) in test [4].
For `Cc1cc(C)c(N)cc1C`, the AC50 in test [1] is 39.8 µM (inconclusive).
Turning to `Cc1ccc(CNC(=O)C[S+]([O-])Cc2nc(-c3ccccc3C)oc2C)cc1` (configuration not stated), the EC50 in test [5] was 6 µM (active).
For the compound `CSc1n[nH]c(NC(C)=O)n1`, the figures for the IC50 in [6] and in test [7] were > 10 µM (inconclusive) and > 10 µM (inactive), respectively.
As to `COc1cc(/C=C/c2cccc[n+]2C)ccc1OCC(=O)Nc1ccccc1C`, the IC50 in test [8] is 1.56 µM (active); in test [9], > 100 µM (inactive); in test [10], 3.83 µM (active); in [11], 1.29 µM (active).
For the compound `O=C(O)C1CC=CCC1C(=O)Nc1ccc(Oc2ccc(Cl)cc2)cc1` (configuration not stated), the IC50 was 1.02 µM (active) in test [2], > 59.6 µM (not active) in test [3] and > 73.5 µM (not active) in test [4].
For the compound `CCCCCCCC(=O)N/N=C/c1ccc([N+](=O)[O-])o1`, in test [12], the IC50 was 2.63 µM (active). Also, the 50% effective concentration (EC50) in test [13] was 2.88 µM (active); in test [14], > 50 µM (active); in test [15], > 160 µM (inactive).
As to `O=C(CN1C2=NCCN2c2ccccc21)c1ccc2c(c1)OCO2`, the EC50 in test [14] is > 50 µM (active).
For the compound `COc1ccccc1-c1nnc(SCc2ccc(C(=O)O)cc2)[nH]1`, the values for the IC50 in test [6], in [7] and in test [16] were > 100 µM (not active), 16.3 µM (active) and > 100 µM (inactive), respectively.
With `COc1cc(CN2CCN(c3cccc(Cl)c3)CC2)cc(OC)c1OC`, in [17], the AC50 was 1.45 µM (active). Moreover, the EC50 in test [18] was 6.14 µM (active); in test [19], 5.95 µM (active).
With `N#Cc1c(NC(=O)CSc2n[nH]c(Cc3ccccc3)n2)oc(-c2ccccc2)c1-c1ccccc1`, the EC50 is 4.13 µM (active) in [18], 4.97 µM (active) in test [20], 5.24 µM (active) in test [19] and 36.5 µM (active) in [21].
On to `COc1ccccc1NC(=O)c1cc[n+](C)cc1`, for which the IC50 in [8] was 2.48 µM (active); in test [9] it was 90.8 µM (active); in test [10], 5.63 µM (active); in test [11], 2.3 µM (active).
As for `CC(=O)OCC1OC(C#Cc2ccc(Br)cc2)C=CC1OC(C)=O` (configuration not stated), in test [1], the AC50 was 3.16 µM (inconclusive).
Regarding `Cc1ccc(NC(=O)C[S+]([O-])Cc2nc(-c3ccc(C)cc3)oc2C)cc1` (configuration not stated), the EC50 in test [5] is 2.45 µM (active).
On to `O=S(=O)(Nc1ccncn1)c1cc(Cl)ccc1F`, for which the values for the IC50 in [6] and in test [7] were > 100 µM (not active) and > 100 µM (inactive), respectively.
As for `CC1=C(C(=O)OCc2ccccc2)C(c2ccccc2)NC(=O)N1CCCCCC(=O)O` (configuration not stated), the AC50 was 39.8 µM (inconclusive) in [22], 25.1 µM (inconclusive) in test [23] and 39.8 µM (inconclusive) in test [24]. The IC50 in test [9] was 78.5 µM (active); in [10], 29.9 µM (active).
In the case of `COc1ccc(/C=C2\C(=O)NCC(=O)N2C)cc1`, the IC50 in test [8] is 2.81 µM (active); in [9], > 100 µM (inactive); in test [10] it was 6.16 µM (active); in test [11] it was 6.99 µM (active).
For `COC(=O)c1c(NC(=O)C2CCCCC2C(=O)O)sc2c1CCCCC2` (configuration not stated), the IC50 in [2] was 1.49 µM (active); in test [3] it was > 59.6 µM (not active); in [4] it was > 73.5 µM (not active).
`CCCC(=O)N1CCN(c2ccc(NC(=S)NC(=O)c3cccc(C)c3)cc2)CC1`: in test [14], the EC50 is > 50 µM (active).
On to `CCOC(=O)Cc1csc(NC(=O)c2ccc(S(=O)(=O)N3CCCC3)cc2)n1`, for which the EC50 in test [14] was > 50 µM (active).
